According to ChEMBL document CHEMBL5665443, “Enzyme Inhibitor Single Concentration assay results for EUbOPEN Chemogenomics Library” (2024):
Where a SMILES comes first, the peptide text is derived from it. [ ]: non-standard residue; d: D form. Arg(Me) = CNC(=N)NCCC[C@H](N)C(=O)O; d4Pal = N[C@H](Cc1ccncc1)C(=O)O; azaGly = NNC(=O)O

What was measured:
[1] = biological target: T1, Single-strand selective monofunctional uracil DNA glycosylase (Homo sapiens) (UniProt Q53HV7); settings: Hit No;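 note: enzymatic SMUG1 assay coupled with APE1, reading fluorescence at 594 nm released when a quenched double-stranded DNA oligonucleotide substrate is cleaved and separated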
T1 sequence (whole entry): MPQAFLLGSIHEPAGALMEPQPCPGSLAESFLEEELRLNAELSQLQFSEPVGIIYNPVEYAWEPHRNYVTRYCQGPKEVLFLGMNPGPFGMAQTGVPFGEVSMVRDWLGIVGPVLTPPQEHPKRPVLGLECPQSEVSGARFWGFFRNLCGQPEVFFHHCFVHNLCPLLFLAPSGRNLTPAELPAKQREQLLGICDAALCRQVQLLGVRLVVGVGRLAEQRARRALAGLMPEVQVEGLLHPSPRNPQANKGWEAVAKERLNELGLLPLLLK
Description: Inhibition of SMUG1 by quantifying inhibition of SMUG1-mediated cleavage and dissociation of quenched duplex DNA oligonucleotides, measured as fluorescence at 594 nm. To generate a functional strand incision and increase turn-over this assay is coupled to APE1.

[2] = biological target: G/T mismatch-specific thymine DNA glycosylase (Homo sapiens) (UniProt Q13569); settings: Hit No;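 note: human TDG cleavage of quenched duplex DNA oligonucleotides coupled to APE1, strand release read as fluorescence at 594 nm, inhibition of TDG activity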
Description: Inhibition of TDG by quantifying inhibition of TDG-mediated cleavage and dissociation of quenched duplex DNA oligonucleotides, measured as fluorescence at 594 nm. To generate a functional strand incision and increase turn-over this assay is coupled to APE1.

[3] = biological target: T2, Endonuclease 8-like 2 (Homo sapiens) (UniProt Q969S2); settings: Hit No;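 note: fluorescence at 594 nm reports NEIL2 cutting and release of a quenched double-stranded DNA oligo substrate, reduced signal read as inhibition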
T2 sequence (whole entry): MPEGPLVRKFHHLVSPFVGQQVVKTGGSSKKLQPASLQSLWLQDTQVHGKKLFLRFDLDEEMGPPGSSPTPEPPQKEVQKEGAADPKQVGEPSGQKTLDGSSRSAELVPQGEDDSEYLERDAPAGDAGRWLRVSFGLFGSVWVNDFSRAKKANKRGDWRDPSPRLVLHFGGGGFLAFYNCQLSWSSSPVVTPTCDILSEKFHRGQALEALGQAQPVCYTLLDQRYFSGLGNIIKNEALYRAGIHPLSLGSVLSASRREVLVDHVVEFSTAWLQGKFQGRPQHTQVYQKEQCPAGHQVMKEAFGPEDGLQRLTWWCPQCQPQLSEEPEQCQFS
Description: Inhibition of NEIL2 by quantifying inhibition of NEIL2-mediated cleavage and dissociation of quenched duplex DNA oligonucleotides, measured as fluorescence at 594 nm.

[4] = biological target: Methyl-CpG-binding domain protein 4 (Homo sapiens) (UniProt O95243); settings: Hit No;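 note: MBD4 activity read as fluorescence at 594 nm from cleavage and release of a quenched duplex DNA oligonucleotide, with APE1 coupled to incise the strand and raise turnover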
Description: Inhibition of MBD4 by quantifying inhibition of MBD4-mediated cleavage and dissociation of quenched duplex DNA oligonucleotides, measured as fluorescence at 594 nm. To generate a functional strand incision and increase turn-over this assay is coupled to APE1.

[5] = biological target: Endonuclease 8-like 1 (Homo sapiens) (UniProt Q96FI4); settings: Hit No;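 note: fluorescence at 594 nm from quenched duplex DNA oligonucleotides released by NEIL1 cleavage and strand separation, reported as reduction of this enzyme activity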
Description: Inhibition of NEIL1 by quantifying inhibition of NEIL1-mediated cleavage and dissociation of quenched duplex DNA oligonucleotides, measured as fluorescence at 594 nm.

[6] = biological target: N-glycosylase/DNA lyase (Homo sapiens) (UniProt O15527);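 note: OGG1 cleavage of a quenched duplex DNA oligonucleotide, coupled to APE1 for strand incision, read as fluorescence at 594 nm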
Description: Inhibition of OGG1 by quantifying inhibition of OGG1-mediated cleavage and dissociation of quenched duplex DNA oligonucleotides, measured as fluorescence at 594 nm. To generate a functional strand incision and increase turn-over this assay is coupled to APE1.

[7] = biological target: Uracil-DNA glycosylase (Homo sapiens) (UniProt P13051); settings: Hit No;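 note: UNG excision on a quenched double-stranded DNA oligo probe, with APE1 added for strand incision and turnover, read as fluorescence at 594 nm as strands separate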
Description: Inhibition of UNG by quantifying inhibition of UNG-mediated cleavage and dissociation of quenched duplex DNA oligonucleotides, measured as fluorescence at 594 nm. To generate a functional strand incision and increase turn-over this assay is coupled to APE1.

[8] = biological target: T3, Endonuclease III-like protein 1 (Homo sapiens) (UniProt P78549); settings: Hit No;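 note: enzyme assay tracking NTHL1 cutting and release of a quenched double-stranded DNA oligo substrate, read as fluorescence at 594 nm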
T3 sequence (whole entry): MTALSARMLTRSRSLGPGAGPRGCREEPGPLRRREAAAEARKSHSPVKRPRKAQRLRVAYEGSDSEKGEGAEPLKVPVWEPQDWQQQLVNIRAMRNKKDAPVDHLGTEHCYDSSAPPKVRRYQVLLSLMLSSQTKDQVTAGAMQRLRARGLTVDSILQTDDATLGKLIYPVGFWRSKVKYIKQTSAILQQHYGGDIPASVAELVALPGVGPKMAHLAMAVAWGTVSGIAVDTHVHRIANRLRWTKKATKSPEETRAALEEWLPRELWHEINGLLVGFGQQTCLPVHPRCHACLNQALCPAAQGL
Description: Inhibition of NTHL1 by quantifying inhibition of NTHL1-mediated cleavage and dissociation of quenched duplex DNA oligonucleotides, measured as fluorescence at 594 nm.

[9] = Compound Concentration 10.0 uM, Hit No
[10] = Compound Concentration 1.0 uM, Hit No

Chain of Uracil-DNA glycosylase (Homo sapiens) (P13051 whole entry): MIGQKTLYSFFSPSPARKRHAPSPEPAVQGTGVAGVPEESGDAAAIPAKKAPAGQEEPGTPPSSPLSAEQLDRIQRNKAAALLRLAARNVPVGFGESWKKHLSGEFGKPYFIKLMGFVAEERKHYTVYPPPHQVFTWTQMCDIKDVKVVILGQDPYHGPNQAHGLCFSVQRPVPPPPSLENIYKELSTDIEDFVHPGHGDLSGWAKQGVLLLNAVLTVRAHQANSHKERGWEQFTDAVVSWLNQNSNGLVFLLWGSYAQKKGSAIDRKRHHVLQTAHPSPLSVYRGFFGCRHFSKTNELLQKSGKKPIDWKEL
Chain of Endonuclease 8-like 1 (Homo sapiens) (Q96FI4 whole entry): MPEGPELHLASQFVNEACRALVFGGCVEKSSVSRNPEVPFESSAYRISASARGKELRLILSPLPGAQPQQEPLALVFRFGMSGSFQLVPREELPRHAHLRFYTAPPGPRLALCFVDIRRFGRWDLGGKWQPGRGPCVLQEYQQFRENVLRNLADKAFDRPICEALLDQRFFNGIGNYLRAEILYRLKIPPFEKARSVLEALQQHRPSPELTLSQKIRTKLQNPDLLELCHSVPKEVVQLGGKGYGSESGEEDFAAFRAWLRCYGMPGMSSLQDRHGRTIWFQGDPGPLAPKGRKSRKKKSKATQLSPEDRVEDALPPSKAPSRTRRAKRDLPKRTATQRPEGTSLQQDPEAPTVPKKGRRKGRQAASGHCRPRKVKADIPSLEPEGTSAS
Chain of N-glycosylase/DNA lyase (Homo sapiens) (O15527 whole entry): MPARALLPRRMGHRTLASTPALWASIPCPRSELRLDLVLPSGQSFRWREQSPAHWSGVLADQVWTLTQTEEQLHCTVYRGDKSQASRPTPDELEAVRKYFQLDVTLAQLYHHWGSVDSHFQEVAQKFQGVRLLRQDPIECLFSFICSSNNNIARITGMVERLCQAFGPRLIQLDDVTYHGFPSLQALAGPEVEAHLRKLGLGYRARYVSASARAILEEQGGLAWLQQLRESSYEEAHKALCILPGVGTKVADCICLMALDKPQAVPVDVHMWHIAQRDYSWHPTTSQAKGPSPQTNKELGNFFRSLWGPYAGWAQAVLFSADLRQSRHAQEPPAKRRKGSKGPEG
Chain of Methyl-CpG-binding domain protein 4 (Homo sapiens) (O95243 whole entry, the tested form may be a part): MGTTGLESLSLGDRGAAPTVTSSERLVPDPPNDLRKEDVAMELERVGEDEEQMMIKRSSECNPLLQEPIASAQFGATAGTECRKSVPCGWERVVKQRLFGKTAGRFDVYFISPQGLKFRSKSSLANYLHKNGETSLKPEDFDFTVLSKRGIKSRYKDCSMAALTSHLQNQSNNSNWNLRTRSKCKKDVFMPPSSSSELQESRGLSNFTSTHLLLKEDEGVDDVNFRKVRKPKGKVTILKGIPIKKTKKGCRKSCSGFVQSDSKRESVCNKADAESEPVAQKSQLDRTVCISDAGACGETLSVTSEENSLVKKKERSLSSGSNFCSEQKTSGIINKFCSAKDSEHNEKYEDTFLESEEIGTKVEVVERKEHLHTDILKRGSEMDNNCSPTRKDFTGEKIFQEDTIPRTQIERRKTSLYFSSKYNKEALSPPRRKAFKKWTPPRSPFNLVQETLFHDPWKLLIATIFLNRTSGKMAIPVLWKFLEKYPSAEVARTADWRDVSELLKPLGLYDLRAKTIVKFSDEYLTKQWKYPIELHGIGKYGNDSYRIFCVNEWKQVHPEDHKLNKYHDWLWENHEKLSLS
Chain of G/T mismatch-specific thymine DNA glycosylase (Homo sapiens) (Q13569 whole entry): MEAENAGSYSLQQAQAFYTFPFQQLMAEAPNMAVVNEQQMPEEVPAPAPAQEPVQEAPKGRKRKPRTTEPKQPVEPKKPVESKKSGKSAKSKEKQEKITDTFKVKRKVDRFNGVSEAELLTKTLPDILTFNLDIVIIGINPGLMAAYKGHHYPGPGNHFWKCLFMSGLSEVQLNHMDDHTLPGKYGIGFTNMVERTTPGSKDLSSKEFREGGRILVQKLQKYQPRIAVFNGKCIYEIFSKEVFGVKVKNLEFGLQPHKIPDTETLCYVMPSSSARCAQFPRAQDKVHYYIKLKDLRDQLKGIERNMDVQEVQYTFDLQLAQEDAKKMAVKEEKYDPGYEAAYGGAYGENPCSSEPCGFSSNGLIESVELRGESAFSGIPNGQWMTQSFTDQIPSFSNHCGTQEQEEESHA

| inhibition ([1]; Compound Concentration 10.0 uM) | inhibition ([2]; Compound Concentration 10.0 uM) | inhibition ([3]; Compound Concentration 10.0 uM) | inhibition ([4]; Compound Concentration 10.0 uM) | inhibition ([5]; Compound Concentration 10.0 uM) | inhibition [6, 9] | inhibition ([7]; Compound Concentration 10.0 uM) | inhibition ([8]; Compound Concentration 10.0 uM) | inhibition ([1]; Compound Concentration 1.0 uM) | inhibition ([2]; Compound Concentration 1.0 uM) | inhibition ([3]; Compound Concentration 1.0 uM) | inhibition ([4]; Compound Concentration 1.0 uM) | inhibition ([5]; Compound Concentration 1.0 uM) | inhibition [6, 10] | inhibition ([7]; Compound Concentration 1.0 uM) | inhibition ([8]; Compound Concentration 1.0 uM) | inhibition ([6]; Compound Concentration 10.0 uM, Hit Yes) | Compound |
| --- | --- | --- | --- | --- | --- | --- | --- | --- | --- | --- | --- | --- | --- | --- | --- | --- | --- |
| 6.33% | 34.3% | -8.14% | 18.2% | 0.467% | 11.7% | -1.26% | 2% |  |  |  |  |  |  |  |  |  | Cc1ccc2nc(CNCCCOc3ccccc3)cc(O)c2c1 |
| 21.2% | 51.6% | -4.78% | 22.3% | -8.95% | 0.354% | 4.22% | -0.801% |  |  |  |  |  |  |  |  |  | C[C@H](NC(=O)Nc1cc2[nH]ncc2c(CO)n1)c1ccccn1 |
| 4.9% | 63% | 10.5% | 63.2% | -2.56% | 64.5% | 2.04% | 3.31% |  |  |  |  |  |  |  |  |  | CCCc1c(OCCCOc2ccc(OCC(=O)O)cc2)ccc(C(C)=O)c1O |
| 19.5% | 52.5% | 6.4% | 54% | -4.68% | -3.16% | 6.61% | -1.29% |  |  |  |  |  |  |  |  |  | CNC(=N)NCCC[C@H](NC(=O)[C@H](CC(C)C)NC(=O)NNC(=O)[C@H](Cc1ccccc1)NC(=O)[C@H](CO)NC(=O)[C@H](CC(N)=O)NC(=O)[C@@H](Cc1ccncc1)NC(=O)[C@H](N)Cc1ccc(O)cc1)C(=O)N[C@@H](Cc1ccccc1)C(N)=O (H-[dY][d4Pal]NSF[azaGly]L[Arg(Me)]F-NH2) |
|  |  |  |  |  |  |  |  | 19.5% | 36.8% | -8.91% | 61.8% | -7.56% | 19.6% | 0.604% | -3.92% |  | O=S(=O)(NC1CCC(c2cc(F)ccc2F)(S(=O)(=O)c2ccc(Cl)cc2)CC1)C(F)(F)F (stereo unspecified) |
|  |  |  |  |  |  |  |  | -2.11% | 39.9% | -6.76% | -6.44% | 6.08% | -3.87% | -1.39% | 5.67% |  | O=C(NOC[C@H](O)CO)c1ccc(F)c(F)c1Nc1ccc(I)cc1F |
| 1.49% | 40.4% | -4.83% | 47.6% | -0.896% |  | 1.14% | 0.0274% |  |  |  |  |  |  |  |  | 85.3% | CN(C)CC#Cc1ccc(OCCCc2sc(N3CCc4cccc(C(=O)Nc5nc6ccccc6s5)c4C3)nc2C(=O)O)c(F)c1 |
| 17.5% | 33.2% | 1.31% | -2.48% | 6.35% | -7.06% | 0.982% | -8.28% |  |  |  |  |  |  |  |  |  | Cn1cc(-c2ccc3occ(-c4ccccc4-c4ccccc4)c3n2)cn1 |
|  |  |  |  |  |  |  |  | 23% | 57.6% | 0.276% | 70.6% | 2.13% | 10.2% | 6.95% | -5.23% |  | CCCOc1ccc([C@H]2[C@H](C(=O)O)[C@@H](c3ccc4c(c3)OCO4)CN2CC(=O)Nc2c(CC)cccc2CC)cc1 |
| 13.4% | 43.1% | -8.34% | 27.6% | -5.82% | 1.02% | 3.5% | -1.49% |  |  |  |  |  |  |  |  |  | Cc1cnc(-c2cc(Cl)ccc2F)cc1-n1c(=O)n(CC(N)=O)c2cnccc21 |
| 19.6% | 97% | 4.61% | 63.9% | -4.53% | -1.2% | 9.57% | 0.685% |  |  |  |  |  |  |  |  |  | COc1ccc(CC[C@@H](OC(=O)[C@H]2CCCCN2C(=O)[C@@H](c2cc(OC)c(OC)c(OC)c2)C2CCCCC2)c2cccc(OCCN3CCOCC3)c2)cc1OC |
| 15.9% | 57.9% | 5.38% | 65.1% | 2.89% | 15% | 7.23% | 3.97% |  |  |  |  |  |  |  |  |  | Cn1c(C2(NC(=O)c3ccc(NCC4CCCCC4)nc3)CCC2)nc2ccc(/C=C/C(=O)O)cc21 |
